# ± gives the expanded uncertainty stated by the source.
# Settings: Liquid
vapor or sublimation pressure (313.15 K),vapor or sublimation pressure (323.15 K),vapor or sublimation pressure (333.15 K),vapor or sublimation pressure (338.15 K),SMILES
2.13 ± 0.14 kPa,4.16 ± 0.16 kPa,7.57 ± 0.2 kPa,9.99 ± 0.23 kPa,CCCC(C)O (stereo not given) [pentan-2-ol]
5.83 ± 0.18 kPa,10.48 ± 0.24 kPa,18.2 ± 0.33 kPa,–,CCC(C)O (stereo not given) [butan-2-ol]
37.04 ± 0.55 kPa,53.91 ± 0.74 kPa,76.32 ± 1 kPa,89.92 ± 1.2 kPa,CCCCCC [hexane]

SMILES,vapor or sublimation pressure (313.15 K),vapor or sublimation pressure (323.15 K),vapor or sublimation pressure (333.15 K),vapor or sublimation pressure (338.15 K)
CCC(C)(C)O [2-methylbutan-2-ol],5.69 ± 0.24 kPa,10.41 ± 0.32 kPa,17.87 ± 0.43 kPa,22.87 ± 0.51 kPa

# — the NIST ThermoML archive (doi:10.1021/je900530f)
